Experimental data reported in ChEMBL document CHEMBL1201862, “PubChem BioAssay data set” (2004).
Activity calls are given as the source filed them.

Columns and labels:
[1] = target: T1, Polyadenylate-binding protein 1 (Homo sapiens, UniProt P11940); experiment: PABP1 MLLE–PAM2 binding inhibitor potency, dose response, biochemical, fluorescence polarization, FITC-PAM2 peptide (AID 602259); assay type: functional; conditions: read-out: IC50_Mean
[2] = target: T1, Polyadenylate-binding protein 1; experiment: PABP1 MLLE–PAM2 interaction inhibitors, dose response, miRNA deadenylation inhibitor project, biochemical, fluorescence polarization, Cy5-PAM2 peptide, secondary (AID 602260); assay type: functional; conditions: read-out: IC50_Mean
[3] = target: T2, Short transient receptor potential channel 4 (Mus musculus, UniProt Q9QUQ5); experiment: mouse TRPC4 channel inhibitors, dose response, cell-based, HEK293 TRPC4/mu-opioid, Fluo-4 calcium (AID 434942); assay type: functional;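 also: potency of inhibitors blocking the TRPC4 calcium response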
T2 sequence (Q9QUQ5 whole entry): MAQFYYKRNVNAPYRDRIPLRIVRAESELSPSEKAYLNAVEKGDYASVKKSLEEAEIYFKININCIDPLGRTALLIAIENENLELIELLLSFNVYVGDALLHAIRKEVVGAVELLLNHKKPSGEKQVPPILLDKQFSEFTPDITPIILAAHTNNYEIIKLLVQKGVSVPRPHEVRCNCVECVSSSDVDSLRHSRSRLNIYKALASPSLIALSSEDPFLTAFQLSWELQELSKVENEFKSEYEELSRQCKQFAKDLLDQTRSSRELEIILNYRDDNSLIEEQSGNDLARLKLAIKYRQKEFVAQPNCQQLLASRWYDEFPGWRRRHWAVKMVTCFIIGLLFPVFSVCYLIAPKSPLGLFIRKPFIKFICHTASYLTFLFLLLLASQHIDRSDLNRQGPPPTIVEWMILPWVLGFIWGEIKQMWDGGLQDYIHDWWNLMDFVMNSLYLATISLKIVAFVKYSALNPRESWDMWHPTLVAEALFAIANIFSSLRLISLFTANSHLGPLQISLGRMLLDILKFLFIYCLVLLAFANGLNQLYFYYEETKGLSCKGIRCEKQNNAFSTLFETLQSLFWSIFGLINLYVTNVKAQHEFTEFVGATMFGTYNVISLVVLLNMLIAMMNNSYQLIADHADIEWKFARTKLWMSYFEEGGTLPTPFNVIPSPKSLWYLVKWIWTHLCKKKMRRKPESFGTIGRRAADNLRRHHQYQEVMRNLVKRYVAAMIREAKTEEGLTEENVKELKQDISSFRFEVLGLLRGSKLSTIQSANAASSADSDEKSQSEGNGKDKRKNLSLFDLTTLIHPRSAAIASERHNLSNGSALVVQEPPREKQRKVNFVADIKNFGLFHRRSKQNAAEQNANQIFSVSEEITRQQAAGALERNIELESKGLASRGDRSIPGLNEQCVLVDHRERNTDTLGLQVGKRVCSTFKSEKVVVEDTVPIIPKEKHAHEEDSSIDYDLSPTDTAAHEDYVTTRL

[4] = C. albicans growth with fluconazole, confirmation, fluorescence, retest (AID 2467); assay type: functional, cell-based
[5] = NIH-3T3 fibroblast cytotoxicity, dose response, cytotoxicity control, cell-based, fluorescence, Alamar Blue, secondary assay (AID 2327); assay type: functional;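 also: NIH-3T3 mouse fibroblasts cultured with fluconazole at 8 µg/mL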
[6] = P. falciparum Dd2 growth inhibitors, dose response, SYBR Green, cherry-picked samples (AID 1159567); assay type: functional, cell-based
[7] = target: T3, Ubiquitin-conjugating enzyme E2 N (Homo sapiens, UniProt P61088); assay type: functional;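 also: Dose-response confirmation in a TR-FRET assay detecting UBC13-driven polyubiquitin chain formation, inhibition measured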
T3 sequence (P61088 whole entry): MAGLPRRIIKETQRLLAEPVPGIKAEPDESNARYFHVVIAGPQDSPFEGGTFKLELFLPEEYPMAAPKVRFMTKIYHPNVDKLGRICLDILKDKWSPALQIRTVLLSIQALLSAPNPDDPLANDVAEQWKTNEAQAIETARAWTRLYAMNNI

Streptococcus = experiment: Group A Streptococcus viability loss, dose response, counter-screen for streptokinase expression inhibitor project, luminescence, BacTiterGlo (AID 1915); assay type: functional, organism-based;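 also: potency for reduction of bacterial viability or growth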
[8] = test system: Streptococcus sp. 'group A'; experiment: growth inhibition of control SK(-) GAS strain, dose response, counter-screen for streptokinase expression inhibitor project, luminescence, kanamycin, BacTiterGlo, confirmation (AID 1900); assay type: functional, organism-based
Streptokinase A = target: T4, Streptokinase A (Streptococcus pyogenes serotype M1, UniProt P10520); experiment: S. pyogenes streptokinase expression inhibitors, potency, dose response, plasminogen activation absorbance, OD405 (AID 1914); assay type: functional, Streptococcus pyogenes M1 GAS;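 also: secreted streptokinase activity via plasminogen activation per viability signal from cell pellet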
T4 sequence (P10520 whole entry): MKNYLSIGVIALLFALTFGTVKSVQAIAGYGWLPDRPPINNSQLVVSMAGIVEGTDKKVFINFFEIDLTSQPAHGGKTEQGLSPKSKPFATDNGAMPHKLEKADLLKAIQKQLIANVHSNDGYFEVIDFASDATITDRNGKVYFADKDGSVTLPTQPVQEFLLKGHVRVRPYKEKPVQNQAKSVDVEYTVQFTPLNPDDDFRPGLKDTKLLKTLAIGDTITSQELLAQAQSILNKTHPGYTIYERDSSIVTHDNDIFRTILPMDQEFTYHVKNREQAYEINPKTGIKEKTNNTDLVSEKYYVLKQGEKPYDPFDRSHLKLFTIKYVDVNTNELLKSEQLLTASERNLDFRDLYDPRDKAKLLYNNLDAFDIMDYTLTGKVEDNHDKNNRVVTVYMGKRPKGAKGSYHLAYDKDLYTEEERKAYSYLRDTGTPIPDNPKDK

[9] = control 3'UTR Renilla luciferase suppression, dose response, counter-screen for Shn3 inhibitor project, cell-based, Clone20-Shn3RL, cherry-picked (AID 624133); assay type: functional
[10] = Shn3 3'UTR reporter inhibitors, dose response, cell-based, Clone20 osteoblasts, firefly luciferase, cherry-picked (AID 624132); assay type: functional;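 also: firefly luciferase luminescence from reporter carrying the Shn3 3'UTR in osteoblasts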
[11] = HepG2 cell cytotoxicity, dose response, cytotoxicity control for Shn3 inhibitor project, CellTiter-Glo, cherry-picked (AID 624134); assay type: functional, cell-based
Nonstructural protein 1 = Nonstructural protein 1 (Influenza A virus, UniProt Q194T2); assay type: functional, Influenza A virus (A/California/07/2009(H1N1))
Chain of Nonstructural protein 1 (Q194T2 whole entry): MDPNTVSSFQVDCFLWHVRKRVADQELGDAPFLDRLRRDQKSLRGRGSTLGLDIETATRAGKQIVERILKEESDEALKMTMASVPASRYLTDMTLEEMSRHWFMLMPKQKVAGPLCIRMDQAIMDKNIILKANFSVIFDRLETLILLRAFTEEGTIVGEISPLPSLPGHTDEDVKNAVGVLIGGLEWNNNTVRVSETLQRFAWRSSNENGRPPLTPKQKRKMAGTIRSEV

[12] = Luminescence Cell-Based Dose Retest to Confirm Inhibitors of Cancer Stem Cells. [Related pubchem assays (depositor defined):AID2717, AID2721]; assay type: functional; conditions: Homo sapiens
[13] = inhibitors of intracellular T. cruzi replication, confirmation, NIH3T3 host cells, beta-gal luminescence (AID 2044); assay type: functional, cell-based;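 also: intracellular parasites grown in NIH/3T3 mouse fibroblasts as host cells; luminescent beta-galactosidase reporter signal from transgenic T. cruzi replicating inside host cells; inhibitors lower the luminescence signal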
[14] = cytotoxicity toward NIH3T3 fibroblasts, dose response, counter-screen, cell-based, ATP luminescence, mouse fibroblasts (AID 2010); assay type: functional;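 also: cells exposed to compound for about 90 hours before reading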
[15] = target: T5, Rac GTPase-activating protein 1 (Homo sapiens, UniProt Q9H0H5); experiment: MgcRacGAP GTPase-activating activity inhibitors, confirmation, biochemical, ADP Hunter fluorescence, primary and confirmatory (AID 624330); assay type: functional
T5 sequence (Q9H0H5 whole entry): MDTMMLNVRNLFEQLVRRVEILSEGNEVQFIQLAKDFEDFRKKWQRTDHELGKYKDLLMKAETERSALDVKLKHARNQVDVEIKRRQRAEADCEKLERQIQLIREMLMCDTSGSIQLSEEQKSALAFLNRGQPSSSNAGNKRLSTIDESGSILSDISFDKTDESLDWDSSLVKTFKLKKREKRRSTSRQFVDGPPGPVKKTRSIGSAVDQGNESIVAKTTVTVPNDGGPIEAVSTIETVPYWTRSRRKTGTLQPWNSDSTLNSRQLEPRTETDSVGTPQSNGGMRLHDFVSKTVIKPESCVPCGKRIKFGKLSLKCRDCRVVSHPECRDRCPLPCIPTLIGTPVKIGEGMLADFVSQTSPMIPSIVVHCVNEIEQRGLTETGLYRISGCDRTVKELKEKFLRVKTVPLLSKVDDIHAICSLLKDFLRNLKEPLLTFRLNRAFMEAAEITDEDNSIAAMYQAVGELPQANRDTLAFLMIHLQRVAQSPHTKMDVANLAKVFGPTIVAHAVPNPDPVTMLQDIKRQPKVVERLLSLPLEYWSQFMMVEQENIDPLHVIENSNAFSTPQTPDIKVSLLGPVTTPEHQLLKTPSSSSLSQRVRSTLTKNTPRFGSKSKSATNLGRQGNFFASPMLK

T1 sequence (P11940 whole entry): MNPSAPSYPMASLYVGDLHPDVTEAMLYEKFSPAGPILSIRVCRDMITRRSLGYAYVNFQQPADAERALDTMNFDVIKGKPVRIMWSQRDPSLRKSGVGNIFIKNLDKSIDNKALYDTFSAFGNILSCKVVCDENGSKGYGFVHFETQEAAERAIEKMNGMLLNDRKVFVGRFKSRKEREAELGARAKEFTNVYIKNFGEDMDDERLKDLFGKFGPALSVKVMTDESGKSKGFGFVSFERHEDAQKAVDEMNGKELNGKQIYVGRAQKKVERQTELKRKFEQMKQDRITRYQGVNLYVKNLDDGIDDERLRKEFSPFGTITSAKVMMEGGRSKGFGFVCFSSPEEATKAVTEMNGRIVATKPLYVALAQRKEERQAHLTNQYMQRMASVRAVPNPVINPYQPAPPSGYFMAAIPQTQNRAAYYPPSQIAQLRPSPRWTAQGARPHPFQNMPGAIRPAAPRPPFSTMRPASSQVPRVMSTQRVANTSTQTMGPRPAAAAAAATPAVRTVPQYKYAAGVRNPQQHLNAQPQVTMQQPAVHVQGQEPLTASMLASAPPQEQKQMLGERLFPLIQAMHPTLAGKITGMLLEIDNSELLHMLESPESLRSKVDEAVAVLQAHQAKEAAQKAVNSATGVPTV

O=C(NC(=S)N1CCCC1)c1ccccc1F
IC50 [1]: > 66 µM (inactive) | IC50 [2]: > 66 µM (inactive)

CC(C)n1c(NCc2c[nH]c3ccccc23)nc2ccccc21
EC50 [3]: 1.68 µM (active)

COc1ccc(NC(=O)CNC(=O)c2nn(-c3ccc(OC)cc3OC)c(=O)c3ccccc23)c(OC)c1
EC50 [4]: 1.55 µM (active) | EC50 [5]: 132 µM (active)

O=C(C1CCC1)N1CC(=O)N2[C@H](CO)[C@@H](c3ccc(C#CCc4ccccc4)cc3)[C@@H]2C1
AC50 [6]: 4.27 µM (active)

Cc1ccc2cc(CN(CCN3CCOCC3)C(=O)NCc3ccccc3)c(O)nc2c1C
EC50 [3]: 4.22 µM (active)

COc1cc2ccccc2cc1C(=O)NC(=S)Nc1cccc(C(=O)O)c1
IC50 [1]: > 66 µM (inactive) | IC50 [2]: > 66 µM (inactive)

CCOc1ccc(NC(=S)NC(=O)c2c(Cl)c(C)nn2C)c([N+](=O)[O-])c1
IC50 [1]: > 66 µM (inactive) | IC50 [2]: > 66 µM (inactive)

Cc1cccc(N(Cc2ccccc2)C(=O)CSC(C)C(=O)Nc2cc(C)on2)c1 (stereo unspecified)
EC50 [3]: 2.11 µM (active)

CCC(=O)N1CC2(CCN(Cc3ccc(Cl)cc3)CC2)c2c(n(C)c3cc(OC)ccc23)[C@@H]1CO
AC50 [6]: 7.31 µM (active)

COCCN=C(S)N(CCO)Cc1cc2cc3c(cc2nc1O)OCCO3
IC50 [1]: > 66 µM (inactive) | IC50 [2]: > 66 µM (inactive)

CCC(=O)N1CC2(C1)CN(Cc1cc(F)ccc1F)[C@H](CO)c1[nH]c3cc(OC)ccc3c12
AC50 [6]: 5.73 µM (active)

COc1ccc(Cl)cc1/C=N/NC(=O)c1c(-c2ccccc2)noc1C
IC50 [7]: > 20 µM (inactive)

CC1CN(C(S)=Nc2cccc([N+](=O)[O-])c2)CC(C)O1 (stereo unspecified)
EC50 [4]: > 38 µM (not active) | EC50 [5]: > 160 µM (inactive)

OC(COc1ccccc1)CN1C2=NCCCN2c2ccccc21 (stereo unspecified)
EC50 [3]: 13.3 µM (active)

CC(C)(C)[S@@+]([O-])N1Cc2cc(C(=O)NC3CCC3)nc(-c3cccc(Br)c3)c2[C@H]1CCO
AC50 [6]: 5.58 µM (active)

CCn1c(NC(=O)c2cccs2)nc2ccccc21
EC50 [4]: 1.43 µM (active) | EC50 [5]: 48.8 µM (active)

O=C(CCc1ccccc1)NNC(=O)c1ccccn1
IC50 [7]: > 20 µM (inactive)

CCC(=O)NC(=S)NNC(=O)c1ccc([N+](=O)[O-])cc1
IC50 [7]: > 20 µM (inactive)

N#C/C(=N\Nc1ccc(S(=O)(=O)N2CCCCCC2)cc1)C(N)=S
IC50 [1]: > 66 µM (inactive) | EC50 (Streptococcus): > 150 µM (not active) | IC50 [2]: > 66 µM (inactive) | EC50 [8]: 22.7 µM (active) | EC50 (Streptokinase A): > 150 µM (not active)

CO[C@@H]1CN(C)C(=O)c2cc(NC(=O)C3CC3)ccc2OC[C@H](C)N(CC2CCCC2)C[C@H]1C
AC50 [6]: 4.45 µM (active)

O=C(Cc1ccc(F)cc1)N1CCN=C1SCc1ccc([N+](=O)[O-])cc1
IC50 [1]: > 66 µM (inactive) | IC50 [2]: > 66 µM (inactive)

O=C(CCS(=O)(=O)c1ccccc1)Nc1nc2cc3c(cc2s1)OCCO3
EC50 (Streptococcus): > 150 µM (not active) | EC50 [8]: 79.6 µM (active) | EC50 (Streptokinase A): > 150 µM (not active) | EC50 [4]: 1.75 µM (active) | EC50 [5]: > 160 µM (inactive)

O=C(NCCCN1CCOCC1)c1ccc(NC(=O)C2COc3ccccc3O2)cc1 (stereo unspecified)
EC50 [3]: 15 µM (active)

CCOC(=O)C1CCN(C(=O)COC(=O)CSc2ccc([N+](=O)[O-])cc2)CC1
IC50 [1]: > 66 µM (inactive) | IC50 [2]: > 66 µM (inactive)

Oc1cc(-c2ccncc2)cc2cccnc12
AC50 [9]: 3.51 µM (active) | AC50 [10]: 5.4 µM (active) | AC50 [11]: 10.9 µM (active) | IC50 (Nonstructural protein 1): 11.9 µM (active)

CC1=C(C(N)=O)C(c2ccc(C)o2)C(C(N)=O)=C(C)N1
EC50 [4]: > 38 µM (not active) | EC50 [5]: > 160 µM (inactive)

Nc1c(C(=O)Nc2ccccc2)c2nc3ccccc3nc2n1CCCN1CCOCC1
AC50 [12]: 5.96 µM (active) | IC50 [7]: > 20 µM (inactive)

CCOc1ccc(CN2CCN(C(=O)c3ccccc3)CC2)cc1
EC50 [3]: 6.68 µM (active)

Cc1cc(/C=N/NC(N)=S)c(C)n1-c1cccc(Cl)c1
EC50 [13]: 0.984 µM (active) | EC50 [14]: > 60 µM (not active) | EC50 [4]: 3.69 µM (active) | EC50 [5]: > 150 µM (inconclusive)

CN(C)C(=O)c1cccc(-c2ccc3c(c2)[C@H]2[C@H](CCN2C(=O)C2CC2)[C@@H](CO)N3)c1
AC50 [6]: 17.5 µM (active)

CC(C)C1=Nc2cccc3cccc(c23)N1
IC50 [15]: 26.3 µM (active) | EC50 [3]: 2.37 µM (active)

CCC(SCC(=O)OC)C(=O)Nc1nnc(C(C)C)s1 (stereo unspecified)
IC50 [1]: > 66 µM (inactive) | IC50 [2]: > 66 µM (inactive)

Cn1nnc(NC(=S)NC(=O)c2cccc3c(Br)cccc23)n1
IC50 [1]: > 66 µM (inactive) | IC50 [2]: > 66 µM (inactive)
